The target in test [1] is T1, CD73 (Homo sapiens, UniProt P21589).
T1 construct: purchased R&D system
T1 sequence (P21589 27-549): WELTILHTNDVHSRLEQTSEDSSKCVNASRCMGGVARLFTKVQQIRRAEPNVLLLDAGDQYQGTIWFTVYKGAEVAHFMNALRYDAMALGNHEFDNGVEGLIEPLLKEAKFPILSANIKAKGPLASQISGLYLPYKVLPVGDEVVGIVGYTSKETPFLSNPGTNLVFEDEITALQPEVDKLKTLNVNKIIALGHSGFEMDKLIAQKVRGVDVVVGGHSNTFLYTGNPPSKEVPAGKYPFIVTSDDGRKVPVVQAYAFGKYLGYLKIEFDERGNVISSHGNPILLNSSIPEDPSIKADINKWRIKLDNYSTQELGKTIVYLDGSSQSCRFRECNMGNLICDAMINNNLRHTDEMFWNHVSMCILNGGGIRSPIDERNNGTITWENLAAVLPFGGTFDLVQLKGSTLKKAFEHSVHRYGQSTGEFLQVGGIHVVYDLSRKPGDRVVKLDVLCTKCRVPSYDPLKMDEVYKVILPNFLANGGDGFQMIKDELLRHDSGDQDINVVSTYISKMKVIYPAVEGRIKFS
The test can be described thus: CD73 Biochemical IC50 Assay. To be noted: final AMP 15 uM, final CD73 0.3 nM, 25 mM Tris pH 7.4, 5 mM MgCl2, no phosphate. As to the method: CD73 Biochemical IC50 Assay
Compound serial dilutions were pre-spotted into Thermo Nunc assay plate. 50 μL CD73 enzyme buffer (CD73 purchased from R&D system=0.6 nM, 25 mM Tris, pH 7.4, 5 mM MgCl2) was added into the assay plate and incubated for 15 mins. […] The samples were run using Rapid fire.

Test [2] has as its target T2, CD73 activity in MDA-MB-231-GFP cells (Homo sapiens, UniProt P21589).
T2 construct: endogenous in cells; host or cells: MDA-MB-231-GFP cells
T2 sequence (P21589 27-549): T1 sequence (P21589 27-549)
The test can be described thus: MDA-MB-231 Cell Based CD73 Activity Assay. The following applies: 10000 cells per well, RPMI medium with 10% human plasma, overnight compound treatment, AMP 200 μM. The protocol: MDA-MB-231 Cell Based CD73 Activity Assay
MDA-MB-231-GFP cells were seeded in 384-well plates (Greiner 781946) at a density of 10000 cells per well in 50 μL of RPMI medium with 10% HP (human plasma). Cells were plated into assay plate with compounds pre-spotted, for an overnight compound treatment. 50 μL of 400 μM AMP (final concentration 200 μM) using a Bio-tek dispenser. Plates were incubated for 100 mins. […] The samples were run using Rapid fire.

Test [3] addresses T1, CD73. In kind it is biochemical. The following applies: 1 mM NaH2PO4 in enzyme buffer, final AMP 15 uM, final CD73 0.3 nM.
Test [4] concerns the target T2, CD73 activity in MDA-MB-231-GFP cells. The test is described as follows: MDA-MB-231 Cell Based CD73 Activity Assay (DMEM). The following applies: 3000 cells per well, DMEM medium with 10% human plasma, overnight compound treatment, AMP 200 uM.

Where two headings read alike, the source gives them in different places. A value given as a limit tells only on which side of the number the result lay.

The IC50 is the concentration at which inhibition is half-maximal. Low readings indicate higher potency, high ones lower potency. The term EC50 denotes the concentration that produces a half-maximal response.

For the molecule `O=c1[nH]cc(-c2cc([C@@H]3C[C@H]3c3ccccc3F)c3nccn3n2)c(=O)[nH]1` (racemic) [Example 28, 5-(8-((1S,2S)-2-(2-fluorophenyl)cyclopropyl)imidazo[1,2-b]pyridazin-6-yl)pyrimidine-2,4(1H,3H)-dione and 5-(8-((1R,2R)-2-(2-fluorophenyl)cyclopropyl)imidazo[1,2-b]pyridazin-6-yl)pyrimidine-2,4(1H,3H)-dione], inhibition in test [1] was half-maximal at 16.8 nM (IC50). Moreover, a half-maximal response in test [2] (EC50) required 3.59 nM.
The matching figures for `O=c1[nH]cc(-c2cc([C@H]3C[C@@H]3c3cccc(F)c3)c3nccn3n2)c(=O)[nH]1` (racemic) [Example 29, 5-(8-((1S,2S)-2-(3-fluorophenyl)cyclopropyl)imidazo[1,2-b]pyridazin-6-yl)pyrimidine-2,4(1H,3H)-dione and 5-(8-((1R,2R)-2-(3-fluorophenyl)cyclopropyl)imidazo[1,2-b]pyridazin-6-yl)pyrimidine-2,4(1H,3H)-dione]: 16.3 nM and 7.08 nM.
Regarding `O=c1[nH]cc(-c2cc([C@@H]3C[C@H]3c3ccc(F)cc3)c3nccn3n2)c(=O)[nH]1` (racemic) [Example 30, 5-(8-((1S,2S)-2-(4-fluorophenyl)cyclopropyl)imidazo[1,2-b]pyridazin-6-yl)pyrimidine-2,4(1H,3H)-dione and 5-(8-((1R,2R)-2-(4-fluorophenyl)cyclopropyl)imidazo[1,2-b]pyridazin-6-yl)pyrimidine-2,4(1H,3H)-dione], the IC50 was 2.36 nM in test [1] and 2.08 nM in test [3]. For the same molecule, the EC50 in test [2] was determined as 2.56 nM; in test [4], 5.11 nM.
The like results for `O=c1[nH]cc(-c2cc([C@@H]3C[C@H]3c3ccc(F)cc3F)c3nccn3n2)c(=O)[nH]1` (racemic) [Example 31, 5-(8-((1S,2S)-2-(2,4-difluorophenyl)cyclopropyl)imidazo[1,2-b]pyridazin-6-yl)pyrimidine-2,4(1H,3H)-dione and 5-(8-((1R,2R)-2-(2,4-difluorophenyl)cyclopropyl)imidazo[1,2-b]pyridazin-6-yl)pyrimidine-2,4(1H,3H)-dione] were, in that order, 5.49 nM, 0.93 nM, 3.84 nM and 4.83 nM.
As for `O=c1[nH]cc(-c2cc([C@@H]3C[C@H]3c3cccc(F)c3F)c3nccn3n2)c(=O)[nH]1` (racemic) [Example 32, 5-(8-((1S,2S)-2-(2,3-difluorophenyl)cyclopropyl)imidazo[1,2-b]pyridazin-6-yl)pyrimidine-2,4(1H,3H)-dione and 5-(8-((1R,2R)-2-(2,3-difluorophenyl)cyclopropyl)imidazo[1,2-b]pyridazin-6-yl)pyrimidine-2,4(1H,3H)-dione], the IC50 in test [1] stood at 18.6 nM. Further, in test [2], the EC50 stood at 6.84 nM.
With `O=c1[nH]cc(-c2cc([C@@H]3C[C@H]3c3ccc(F)c(F)c3)c3nccn3n2)c(=O)[nH]1` (racemic) [Example 33, 5-(8-((1S,2S)-2-(3,4-difluorophenyl)cyclopropyl)imidazo[1,2-b]pyridazin-6-yl)pyrimidine-2,4(1H,3H)-dione and 5-(8-((1R,2R)-2-(3,4-difluorophenyl)cyclopropyl)imidazo[1,2-b]pyridazin-6-yl)pyrimidine-2,4(1H,3H)-dione], the IC50 came to 9.38 nM in test [1] and 0.93 nM in test [3]. Besides, the EC50 amounted to 2.04 nM in test [2] and 4.71 nM in test [4].
In test [1], `O=c1[nH]cc(-c2cc([C@@H]3C[C@H]3c3ccc(F)c(F)c3F)c3nccn3n2)c(=O)[nH]1` (racemic) [Example 34, 5-(8-((1S,2S)-2-(2,3,4-trifluorophenyl)cyclopropyl)imidazo[1,2-b]pyridazin-6-yl)pyrimidine-2,4(1H,3H)-dione and 5-(8-((1R,2R)-2-(2,3,4-trifluorophenyl)cyclopropyl)imidazo[1,2-b]pyridazin-6-yl)pyrimidine-2,4(1H,3H)-dione] came in with an IC50 of 18.2 nM. For the same molecule, the EC50 in test [2] was determined as 11.3 nM.
The like results for `O=c1[nH]cc(-c2cc([C@@H]3C[C@H]3c3cc(F)c(F)c(F)c3)c3nccn3n2)c(=O)[nH]1` (racemic) [Example 36, 5-(8-((1S,2S)-2-(3,4,5-trifluorophenyl)cyclopropyl)imidazo[1,2-b]pyridazin-6-yl)pyrimidine-2,4(1H,3H)-dione and 5-(8-((1R,2R)-2-(3,4,5-trifluorophenyl)cyclopropyl)imidazo[1,2-b]pyridazin-6-yl)pyrimidine-2,4(1H,3H)-dione] were, in that order, 24.2 nM and 6.51 nM.
The matching figures for `O=c1[nH]cc(-c2cc([C@@H]3C[C@H]3c3cccc(Cl)c3)c3nccn3n2)c(=O)[nH]1` (racemic) [Example 38, 5-(8-((1S,2S)-2-(3-chlorophenyl)cyclopropyl)imidazo[1,2-b]pyridazin-6-yl)pyrimidine-2,4(1H,3H)-dione and 5-(8-((1R,2R)-2-(3-chlorophenyl)cyclopropyl)imidazo[1,2-b]pyridazin-6-yl)pyrimidine-2,4(1H,3H)-dione]: 14.3 nM and 7.29 nM.
For `O=c1[nH]cc(-c2cc([C@H]3C[C@@H]3c3ccccc3)c3ncc(F)n3n2)c(=O)[nH]1` (racemic) [Example 87, 5-[3-fluoro-8-[(1S,2S)-2-phenylcyclopropyl]imidazo[1,2-b]pyridazin-6-yl]-1H-pyrimidine-2,4-dione and 5-[3-fluoro-8-[(1R,2R)-2-phenylcyclopropyl]imidazo[1,2-b]pyridazin-6-yl]-1H-pyrimidine-2,4-dione], in test [1], inhibition was half-maximal at 15.7 nM (IC50). This molecule gave an EC50 in test [2] of 3.24 nM.
The matching figures for `O=c1[nH]cc(-c2cc([C@H]3C[C@@H]3c3ccccc3)c3nccn3n2)c(=O)[nH]1` (racemic) [Example 104, 5-(8-((2S,2S)-2-phenylcyclopropyl)imidazo[1,2-b]pyridazin-6-yl)pyrimidine-2,4-(1H,3H)-dione and 5-(8-((1R,2R)-2-phenylcyclopropyl)imidazo[1,2-b]pyridazin-6-yl)pyrimidine-2,4-(1H,3H)-dione]: 196 nM and 23.2 nM.
The matching figures for `N#Cc1ccccc1[C@H]1C[C@@H]1c1cc(-c2c[nH]c(=O)[nH]c2=O)nn2ccnc12` [Example 49, 2-((1S,2S)-2-(6-(2,4-dioxo-1,2,3,4-tetrahydropyrimidin-5-yl)imidazo[1,2-b]pyridazin-8-yl)cyclopropyl)benzonitrile]: 17.5 nM and 19 nM.
With `O=c1[nH]cc(-c2cc(N3C[C@@H](F)[C@@H](F)C3)c3nccn3n2)c(=O)[nH]1` [Example 77, 5-[8-[(3S,4R)-3,4-difluoropyrrolidin-1-yl]imidazo[1,2-b]pyridazin-6-yl]-1H-pyrimidine-2,4-dione and 5-[8-[(3R,4S)-3,4-difluoropyrrolidin-1-yl]imidazo[1,2-b]pyridazin-6-yl]-1H-pyrimidine-2,4-dione], the IC50 in test [1] worked out at 22.6 nM; in test [3] it was 3.5 nM.
The molecule `COc1ccc([C@H]2C[C@@H]2c2cc(-c3c[nH]c(=O)[nH]c3=O)nn3ccnc23)cc1` [Example 112, 5-(8-((1S,2S)-2-(4-methoxyphenyl)cyclopropyl)imidazo[1,2-b]pyridazin-6-yl)pyrimidine-2,4(1H,3H)-dione] showed an IC50 in test [1] of 20.5 nM. For the same molecule, the EC50 in test [2] was 2.23 nM.
The like results for `COC(=O)c1ccccc1[C@H]1C[C@@H]1c1cc(-c2c[nH]c(=O)[nH]c2=O)nn2ccnc12` [Example 113, methyl 2-((1S,2S)-2-(6-(2,4-dioxo-1,2,3,4-tetrahydropyrimidin-5-yl)imidazo[1,2-b]pyridazin-8-yl)cyclopropyl)benzoate] were, in that order, 147 nM and 210 nM.
`COc1cccc([C@H]2C[C@@H]2c2cc(-c3c[nH]c(=O)[nH]c3=O)nn3ccnc23)c1` [Example 114, 5-(8-((1S,2S)-2-(3-methoxyphenyl)cyclopropyl)imidazo[1,2-b]pyridazin-6-yl)pyrimidine-2,4(1H,3H)-dione] came in with an IC50 in test [1] of 31.1 nM. This molecule displayed an EC50 in test [2] of 5.38 nM.
The like results for `O=c1[nH]cc(-c2cc(N3CCC[C@H]3c3ccc(F)cc3)c3nccn3n2)c(=O)[nH]1` [Example 116, (S)-5-(8-(2-(4-fluorophenyl)pyrrolidin-1-yl)imidazo[1,2-b]pyridazin-6-yl)pyrimidine-2,4(1H,3H)-dione] were, in that order, above 2500 nM and 718 nM.
